Source: patent US6825218B1, “Spherical agglomerates of telithromycin, their preparation process and their use in the preparation of pharmaceutical forms” (Aventis Pharma S. A., priority 1999, dated 2004)

Experiment: Granulometry: particle size by laser diffraction (HELOS SYMPATEC granulometer)
Format: physicochemical
Conditions: after sieving on a 500 μm grid
Protocol: The size of the particles is determined by laser diffraction using a HELOS SYMPATEC® model granulometer.

SMILES: CC[C@H]1OC(=O)[C@H](C)C(=O)[C@H](C)[C@@H](O[C@@H]2O[C@H](C)C[C@H](N(C)C)[C@H]2O)[C@](C)(O)C[C@@H](C)C(=O)[C@H](C)[C@H]2N(CCCCn3cnc(-c4cccnc4)c3)C(=O)O[C@]12C [spherical agglomerates of telithromycin, 11,12-dideoxy-3-de((2,6-dideoxy-3-C-methyl-3-O-methyl-alpha-L-ribohexopyranosyl)oxy)-6-O-methyl-3-oxo-12,11-(oxycarbonyl((4-(4-(3-pyridinyl)-1H-imidazol-1-yl)butyl)imino))-erythromycin]
- diameter of 10% of the particles (10% of the particles below this diameter): < 77 microns
- diameter of 50% of the particles (50% of the particles below this diameter): < 107 microns
- diameter of 90% of the particles (90% of the particles below this diameter): < 166 microns
